Measurements taken from patent publication US20100173936A1 (priority 2008, published 2010).

Key:
Assay type in all cases: in vivo, human
LDL = LDL oxidation lag time, CuSO4 assay on LDL isolated from treated subjects
Description: Although, the mechanisms of this damage have yet to be clearly established and may involve the inactivation of nitric oxide (NO) by oxygen-derived free radicals such as superoxide (33), it is clear that this inflammatory response affects the gene expression of regulatory molecules, such as vascular cell adhesion molecule and tumor necrosis factor-alpha (34-36), which in turn promote foam cell formation. In this regard, a reduction in NO levels along with an increase in ox-LDL may function as immunomodulators of the atherosclerotic process (37) and, indeed, recent studies imply that ox-LDL stimulates an immunological response through the formation of autoantibodies, resulting in further damage to the endothelium and acceleration of the atherosclerotic process (38,39). This antibody response may represent a marker for the extent of atherosclerosis seen in individuals. […] The LDL was then oxidized to ox-LDL by an in vitro assay utilizing CuSO4 (52). The lag time indicating the susceptibility of the LDL to oxidize was measured using a spectrophotometer at […] (42). Values were performed in triplicate.

adiponectin = assay: Serum adiponectin enzyme immunoassay (EIA)
Description: (§1) An aliquot of each sample was then drawn, and an enzyme immunoassay (EIA; Cayman Chemical, Ann Arbor, Mich.) for serum adiponectin and leptin was performed on each sample in triplicate according to well-established protocols (45). A total of 50 μl of serum were used for the analysis. The levels of total serum adiponectin and leptin were determined on a plate reader at an optical density of 420 nm. No interference by quinapril or its metabolites was found in any of the assays.

[1] = Blood pressure in randomized crossover study, Type II diabetes mellitus with hypertension
Description: (§2) Subjects with hypertension requiring therapy were excluded from the study as one of the goals of the study was to measure the anti-inflammatory effects of an ACE inhibitor independently of its blood pressure lowering effects. Subjects on lipid lowering therapy (e.g., statin therapy) at the time of enrollment continued their therapy without change throughout the study. Written informed consent was obtained from all subjects. All subjects were evaluated at the time of enrollment. The subjects received nutritional counseling and were advised to record their weight and calorie counts weekly. A nutritionist was available for counseling throughout the study. Blood samples were drawn before and at the end of therapy at a similar time of day while subjects were fasting. […] After the initial 8 weeks of treatment, there was a 4 week washout period. The subjects then received in a crossover fashion the alternate pharmacological regimen. Allocation concealment was maintained until the end of the study. Pill counts were obtained at the end of the treatment period to determine compliance (13). Subjects were advised to self-administer half of the full dose during the initial 2 days of therapy, after which they were to take the full study dose at the same time each morning. The total study period was 22 weeks. […] Blood pressure was checked with at least three separate measurements that were taken approximately five minutes apart using an Omron sphygmomanometer.

glycosylated hemoglobin = assay: Glycosylated hemoglobin in the diabetic hypertensive crossover study
[2] = Brachial artery reactivity testing (BART), flow-mediated vasodilation, diabetic hypertensive subjects
Description: Briefly, the subjects were positioned in the supine position with the arm in a comfortable position for imaging the brachial artery. A blood pressure cuff was then placed on the forearm, after which a baseline rest image was acquired. The brachial artery was imaged above the antecubital fossa in the longitudinal plane, and a segment with clear anterior and posterior intimal interfaces between the lumen and vessel wall was selected for continuous 2D gray-scale imaging. Blood flow velocity was estimated by time-averaging the pulsed Doppler velocity signal obtained from a mid-artery sample volume. […] After cuff deflation, the longitudinal image of the artery was recorded continuously from 30 seconds before to 2 minutes after cuff deflation. […] The diameter of the brachial artery was measured from longitudinal images in which the lumen-intima interface was visualized on both the near (anterior) and far (posterior) walls. Once the image for analysis was chosen, the boundaries for diameter measurements were identified manually with electronic calipers (Medical Imaging Application Vascular Tools, Coralville, Iowa), and the average diameter was determined from at least 3 different diameter measurements determined along a segment of the vessel. Brachial artery diameter was measured at the same time in the cardiac cycle by use of electrocardiogram (ECG) gating during image acquisition. […]

[3] = HOMA-IR index of insulin resistance
Description: Without wishing to be bound by any particular theory, it was thought that insulin resistance can play an important role in hyperglycemia in type 2 diabetic subjects, and can eventually induce the development of diabetic microangiopathy (20). Indeed, to achieve glycemic control and prevent these complications, several oral hypoglycemic agents that improve insulin resistance, such as thiazolidinediones and biguanides, have been developed and are currently available clinically (21,22). Furthermore, insulin resistance is proposed to play important roles in the pathogenesis of cardiovascular diseases (23,24), the most common cause of death in diabetic subjects. Therefore, a clinical and epidemiological evaluation was undertaken with the subjects described in Example 1 in order to evaluate insulin resistance simply and accurately in the individual diabetic subjects with hypertension. Many investigators have studied simple surrogate indices of insulin resistance in comparison with the index assessed by euglycemic-hyperinsulinemic clamp (clamp-IR); for example, fasting plasma insulin (25), homeostasis model assessment (HOMA) of insulin resistance (HOMA-IR) (26), and the fasting glucose-to-insulin ratio (27). […]

urinary albumin = assay: Proteinuria, 24 hour urine collection, standard chemical protein analysis; conditions: versus pretreatment, in words (FIG. 1)
Description: Upon collection of each urine sample, the urine was quickly analyzed, and protein analysis was performed via a standard chemical analysis (Quest Laboratory, Scranton, Pa.).

PAI-1 = assay: Serum soluble PAI-1 ELISA in subjects with metabolic syndrome; conditions: after four weeks of therapy, quinapril 20 mg/day, alpha lipoic acid 300 mg/day, from baseline
Description: […] Blood was collected at these time periods, and serum levels of soluble PAI-1 and VCAM-1 were determined using an enzyme-linked immunosorbent assay (ELISA). Further, endothelial function in each of the subjects was also determined by flow mediated dilation (FMD) of the brachial artery, utilizing the high resolution ultrasound technique described herein above.

[4] = Adverse events in the diabetic hypertensive crossover study (cough, angioedema, potassium/creatinine, hypotension)
Description: as §2, with “subjects.” for “subjects. All subjects were evaluated at the time of enrollment. The subjects received nutritional counseling and were advised to record their weight and calorie counts weekly. A nutritionist was available for counseling throughout the study. Blood samples were drawn before and at the end of therapy at a similar time of day while subjects were fasting.”

leptin = assay: Serum leptin enzyme immunoassay (EIA)
Description: as §1

[5] = serum, diabetic hypertensive subjects
[6] = diabetic hypertensive subjects, quinapril 40 mg/day, alpha lipoic acid 600 mg/day, 8 weeks

In the case of `CCOC(=O)[C@H](CCc1ccccc1)N[C@@H](C)C(=O)N1Cc2ccccc2C[C@H]1C(=O)O` [Quinapril, quinapril], the “increase of lag time of LDL oxidation from pretreatment” value (LDL; human, in vivo) is reported as 23%, the “lag time of LDL oxidation, Post-treatment” value (LDL; post-treatment) is reported as 71.0 ± 13.9 s and the “serum levels of adiponectin” value (adiponectin; over pretreatment, in words) is reported as “significantly increased”. The Adiponectin (adiponectin; [5]) was 122% of % of pretreatment, the “Diastolic BP” value [1, 6] was 77.9 ± 10.0 mmHg and the “Systolic BP” value ([1]; diabetic hypertensive subjects, quinapril 40 mg/day, alpha lipoic acid 600 mg/day, 8 weeks, mean ± SD) was 133.4 ± 11.7 mmHg. The “change in systolic and diastolic blood pressure after the follow-up period” value ([1]; versus pretreatment, in words) was “significant reduction”, the “Glycosylated Hgb” value (glycosylated hemoglobin; [6]) was 7.6 ± 1.5% and the “change in glycosylated hemoglobin (Hgb)” value (glycosylated hemoglobin; from pretreatment and between the two treatment arms, in words) was “no significant change”. The “increase in flow mediated dilation of the brachial artery as compared to baseline” value ([2]; at 24 weeks as printed) was 59%, the “flow mediated dilation of the brachial artery” value ([2]; post-treatment, pretreatment 3.86±0.55 percent) was 6.02±0.80% and the serum HOMA-IR ([3]; end of treatment, pretreatment 3.01±0.33 U/ml) was 1.83 ± 0.25. The “reduction in HOMA-IR from pretreatment baseline” value ([3]; in vivo) was 40%, the “ratio of urinary albumin to creatinine” value (urinary albumin) was “reduced significantly” and the urinary albumin (urinary albumin) was “reduced significantly”. The “reduction of serum PAI-1 levels” value (PAI-1) was 22%, the “hypotension (systolic BP less than 100 mm Hg)” value ([4]; during the study) was “No subject” and the “rise in serum potassium or creatinine of greater than 20 percent” value ([4]; number of subjects affected) was 1 out of 40. For the same compound, the incidence of cough ([4]; quinapril 40 mg/day, alpha lipoic acid 600 mg/day) was 14%, the angioedema ([4]; throughout the study) was “No angioedema” and the Leptin (leptin; [5]) was 51% of % of pretreatment. For the same compound, the “serum levels of leptin” value (leptin; versus pretreatment, in words) was “significantly reduced”.
